Assay results taken from ChEMBL document CHEMBL1201862, “PubChem BioAssay data set” (2004).
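Results reflect a 48-hour exposure of cells in 96-well plates to compound at five concentrations. Here, GI50 denotes the concentration required for 50% inhibition of growth.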 Activity calls are given as the source filed them. Rule as the data show it: active = GI50 up to about 1.1 µM and inactive = higher.

Assays:
Assay in all cases: DTP human tumour cell line panel, 48 h
OVCAR-4 = system: OVCAR-4
SK-MEL-28 = system: SK-MEL-28
LOX IMVI = system: LOX IMVI
HT-29 = system: HT-29
UO-31 = system: UO-31
MOLT-4 = system: MOLT-4
A549 = system: A549
CCRF-CEM = system: CCRF-CEM
EKVX = system: EKVX
COLO 205 = system: COLO 205
UACC-257 = system: UACC-257
SK-MEL-2 = system: SK-MEL-2
NCI-H522 = system: NCI-H522
CAKI-1 = system: CAKI-1
HOP-92 = system: HOP-92
RPMI-8226 = system: RPMI-8226
U-251 = system: U-251
MCF7 = system: MCF7
DU-145 = system: DU-145
PC-3 = system: PC-3

Measured: GI50

CC1(C2COC(=O)C2)SCCCS1 (stereo unspecified)
inactive: OVCAR-4 > 100 µM | SK-MEL-28 > 100 µM | LOX IMVI > 100 µM | HT-29 > 100 µM | UO-31 14.2 µM | MOLT-4 > 100 µM | A549 > 100 µM | CCRF-CEM > 100 µM | EKVX > 100 µM | COLO 205 > 100 µM | UACC-257 > 100 µM | SK-MEL-2 > 100 µM | NCI-H522 2.79 µM | CAKI-1 > 100 µM | HOP-92 > 100 µM

CCCCCCCCCCCC(=O)OCCOCCOCCOCCOCCOCc1ccc(OC)cc1
inactive: OVCAR-4 > 100 µM | SK-MEL-28 > 100 µM | LOX IMVI > 100 µM | HT-29 > 100 µM | UO-31 > 100 µM | MOLT-4 73.6 µM | A549 > 100 µM | CCRF-CEM > 100 µM | EKVX > 100 µM | RPMI-8226 > 100 µM | COLO 205 > 100 µM | UACC-257 > 100 µM | SK-MEL-2 > 100 µM | U-251 > 100 µM | NCI-H522 > 100 µM | CAKI-1 > 100 µM | HOP-92 > 100 µM

COc1ccc(/C=C2\N=C3NC(=O)C(N4CCOCC4)=C(N)N3C2=O)cc1
inactive: OVCAR-4 31.8 µM | SK-MEL-28 > 100 µM | LOX IMVI > 100 µM | HT-29 > 100 µM | UO-31 > 100 µM | MOLT-4 > 100 µM | A549 > 100 µM | CCRF-CEM > 100 µM | EKVX 69.7 µM | RPMI-8226 > 100 µM | COLO 205 > 100 µM | MCF7 > 100 µM | UACC-257 > 100 µM | DU-145 > 100 µM | U-251 53.7 µM | NCI-H522 75.3 µM | CAKI-1 > 100 µM | HOP-92 > 100 µM

C#CCOCn1cnc2c(Cl)ncnc21
inactive: OVCAR-4 > 100 µM | SK-MEL-28 > 100 µM | LOX IMVI 52.6 µM | HT-29 > 100 µM | UO-31 > 100 µM | MOLT-4 67.5 µM | A549 > 100 µM | CCRF-CEM > 100 µM | EKVX > 100 µM | RPMI-8226 > 100 µM | COLO 205 > 100 µM | UACC-257 > 100 µM | SK-MEL-2 > 100 µM | U-251 > 100 µM | NCI-H522 86.1 µM | CAKI-1 > 100 µM | HOP-92 > 100 µM

CC[N+](C)(CC)CCC(O)(c1ccccc1)c1ccccc1
inactive: OVCAR-4 > 100 µM | SK-MEL-28 > 100 µM | LOX IMVI > 100 µM | HT-29 > 100 µM | UO-31 > 100 µM | MOLT-4 > 100 µM | A549 > 100 µM | CCRF-CEM > 100 µM | EKVX > 100 µM | RPMI-8226 > 100 µM | COLO 205 > 100 µM | MCF7 > 100 µM | UACC-257 > 100 µM | DU-145 > 100 µM | SK-MEL-2 > 100 µM | U-251 > 100 µM | NCI-H522 > 100 µM | PC-3 > 100 µM

CCOC(=O)c1nc2ccccc2nc1NCc1ccc(Cl)cc1Cl
inactive: OVCAR-4 > 100 µM | LOX IMVI > 100 µM | HT-29 > 100 µM | UO-31 > 100 µM | MOLT-4 > 100 µM | A549 > 100 µM | CCRF-CEM > 100 µM | EKVX > 100 µM | RPMI-8226 > 100 µM | COLO 205 > 100 µM | MCF7 > 100 µM | UACC-257 > 100 µM | SK-MEL-2 > 100 µM | U-251 > 100 µM | NCI-H522 > 100 µM | CAKI-1 > 100 µM | HOP-92 > 100 µM | PC-3 > 100 µM

O=C1CSC(c2c[nH]c3ccccc23)N1c1cccc(Cl)c1 (stereo unspecified)
inactive: OVCAR-4 38 µM | SK-MEL-28 > 100 µM | HT-29 37.8 µM | UO-31 84.5 µM | MOLT-4 38.5 µM | A549 56.1 µM | CCRF-CEM 31.9 µM | EKVX > 100 µM | RPMI-8226 25.7 µM | COLO 205 50.7 µM | MCF7 39.6 µM | UACC-257 > 100 µM | DU-145 > 100 µM | SK-MEL-2 30.1 µM | U-251 37.2 µM | HOP-92 60.4 µM

COS(=O)c1cc(Cl)cc(Cl)c1OC(=O)CSSCC(=O)Oc1c(Cl)cc(Cl)cc1S(=O)OC (stereo unspecified)
inactive: OVCAR-4 19.3 µM | SK-MEL-28 12.4 µM | LOX IMVI 16 µM | HT-29 30.4 µM | UO-31 13.2 µM | MOLT-4 17.1 µM | A549 13.2 µM | CCRF-CEM 19.6 µM | EKVX 20 µM | RPMI-8226 12.5 µM | COLO 205 22.6 µM | UACC-257 23.2 µM | SK-MEL-2 17.3 µM | U-251 5.92 µM | NCI-H522 14.2 µM | CAKI-1 26.6 µM | HOP-92 22.4 µM
